Assay results taken from US6534446B1, “Method to mitigate plant stress” (Emerald BioAgriculture Corporation, priority 1994, dated 2003).

Legend:
Type in all cases: in vivo
cabbage plants = assay: Heat stress in cabbage, fresh weight; settings: CaNO3 2500 ppm alone
[1] = test system: Roundup Ready cotton seeds; assay: Cold-induced inhibition of cotton seed germination; settings: for number of cotton seeds germinated / Fresh Wt.: 300 ppm each component; for Fresh Wt.: seedlings harvested 17 days after planting
Duckweed = assay: Copper salt stress in duckweed, dry weight; settings: fifteen days of growth

SMILES	Mean Fresh Weight (g) ± SD (cabbage plants; oven at 48° C. (118° F.) for twelve hours, weighed one week later)	% of Room Temperature Control (cabbage plants; oven at 48° C. for twelve hours)	number of cotton seeds germinated ([1]; 5 days after planting, 59° F. (15° C.)/50° F. (10° C.), 45 seeds)	number of cotton seeds germinated ([1]; 5 days after planting, 75° F. (24° C.), 45 seeds per treatment)	number of cotton seeds germinated ([1]; 7 days after planting, 59° F. (15° C.)/50° F. (10° C.), 45 seeds)	number of cotton seeds germinated ([1]; 7 days after planting, 75° F. (24° C.), 45 seeds)	number of cotton seeds germinated ([1]; 9 days after planting, 59° F. (15° C.)/50° F. (10° C.), 45 seeds)	number of cotton seeds germinated ([1]; 9 days after planting, 75° F. (24° C.), 45 seeds)	seeds germinated, % of all seeds ([1]; 9 days after planting, low temperatures, 45 seeds per treatment)	number of cotton seeds germinated ([1]; 13 days after planting, 59° F. (15° C.)/50° F. (10° C.), 45 seeds)	number of cotton seeds germinated ([1]; 13 days after planting, 75° F. (24° C.), 45 seeds)	number of cotton seeds germinated ([1]; 17 days after planting, 59° F. (15° C.)/50° F. (10° C.), 45 seeds)	number of cotton seeds germinated ([1]; 17 days after planting, 75° F. (24° C.), 45 seeds)	Fresh Wt. ([1]; 59° F. (15° C.)/50° F. (10° C.))	Fresh Wt. ([1]; 75° F. (24° C.))	Average Dry Weight (mg) ± SD (Duckweed; Copper 1.7 ppm)	% Change From Control (Duckweed; Copper 3.3 ppm)	Average Dry Weight (mg) ± SD (Duckweed; Copper 3.3 ppm)
O=[N+]([O-])[O-].O=[N+]([O-])[O-].[Ca+2] [CaNO3, calcium nitrate]	28.8 ± 5.6 g	77%	0	9	0	38	6	41	13%	23	42	31	43	4.01 g	8.70 g	–	–	–
O.O.O.O.O.O=S(=O)([O-])[O-].[Cu+2] [Copper, CuSo4SH2O]	–	–	–	–	–	–	–	–	–	–	–	–	–	–	–	18.0 ± 4.7 mg	−70%	8.3 ± 0.7 mg
